Measurements as given in patent US20240041754A1, “NOVEL SACCHAROMYCES CEREVISIAE STRAIN AND USE THEREOF” (LG HOUSEHOLD & HEALTH CARE LTD., priority 2020, published 2024).

Experiments:
[1] = system: Human keratinocytes (HaCaT); assay: Hyaluronic acid synthesis enhancement, Quantikine ELISA Hyaluronan; assay type: cell-based; details: 1 ppm, 72 hours, vs negative control (DMEM containing 0% serum)
Experimental: Human keratinocytes (HaCaT) were treated with each sample for 72 hours. Thereafter, a hyaluronic acid synthesis rate was derived by measuring hyaluronic acid using R&D systems' Quantikine ELISA Hyaluronan. The skin moisturizing ability of the sample was expressed as an increase rate (%) of hyaluronic acid synthesis, which was calculated and quantified in comparison to a negative control group (treated with DMEM containing 0% serum).
The calculation formula of the increase rate of hyaluronic acid synthesis, each sample, and the results thereof are shown in Table 6 below.
Increase rate of hyaluronic acid synthesis (%)=(Hyaluronic acid synthesis rate of Sample−Hyaluronic acid synthesis rate of Negative control)/Hyaluronic acid synthesis rate of Negative control

Human dermal fibroblasts = assay: Collagen synthesis enhancement, procollagen type I C-peptide (PIP) EIA kit; assay type: cell-based; details: 10 ppb, 48 hours, vs negative control (DMEM containing 0% serum)
Experimental: Human dermal fibroblasts were treated with each sample for 48 hours. Thereafter, a collagen synthesis rate was measured by detecting collagen using a method of a procollagen type I C-peptide (PIP) EIA kit. The collagen synthesis efficiency of the sample was expressed as an increase rate (%) of collagen synthesis, which was calculated and quantified in comparison to a negative control group (DMEM containing 0% serum).
Increase rate of collagen synthesis (%)=(Collagen synthesis rate of Sample−Collagen synthesis rate of Negative control)/Collagen synthesis rate of Negative control

CC1=C(/C=C/C(C)=C/C=C/C(C)=C/C(=O)O)C(C)(C)CCC1 [Retinoic acid]
Increase rate of hyaluronic acid synthesis [1]: 13.8%

TGF-β
Increase rate of collagen synthesis (Human dermal fibroblasts): 15.2%
